Results on 16 compounds are retold here after patent US20120129842A1, “BISTHIAZOLE INHIBITORS OF PRO-MATRIX METALLOPROTEINASE ACTIVATION” (priority 2010, published 2012).

Structures can show the parent of a compound that is named as a salt.

For test [1], the target named is T1, proMMP9(20-445;ΔFnII) (SEQ ID NO:6) (Homo sapiens, UniProt P14780, DEL216-390).
T1 construct: start methionine (N); made in house; host or cells: E. coli BL21(DE3) RIL
T1 sequence (P14780 with tags, fused parts or gaps DEL216-390): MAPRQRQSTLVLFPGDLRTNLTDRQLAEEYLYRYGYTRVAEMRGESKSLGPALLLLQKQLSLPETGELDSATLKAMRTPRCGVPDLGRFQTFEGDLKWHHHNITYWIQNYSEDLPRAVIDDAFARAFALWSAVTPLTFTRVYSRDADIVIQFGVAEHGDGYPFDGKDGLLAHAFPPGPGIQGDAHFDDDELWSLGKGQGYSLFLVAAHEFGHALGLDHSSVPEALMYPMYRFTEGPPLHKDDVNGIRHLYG
Nature of the test: ThermoFluor binding assay with proMMP9(20-445;ΔFnII). The conditions noted are these: pH 7.0. In short, it runs like this: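 proMMP9(20-445;ΔFnII) at 2.8 μM with 50 μM 1,8-ANS in 50 mM HEPES pH 7.0, 100 mM NaCl, 0.001% Tween-20, 2.5 mM MgCl2, 300 μM CaCl2; compounds serially diluted in DMSO. Heated 40–90 °C at 1 °C/min, fluorescence read at 500±25 nm. Tm fit by standard equations; binding fit using DSC/TF-derived thermodynamic parameters.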

Test [2] addresses T2, proMMP9(67-444;ΔFnII) (SEQ ID NO:5) (Homo sapiens, UniProt P14780, DEL216-390).
T2 construct: start methionine (N); made in house; host or cells: E. coli BL21(DE3) RIL
T2 sequence (P14780 with tags, fused parts or gaps DEL216-390): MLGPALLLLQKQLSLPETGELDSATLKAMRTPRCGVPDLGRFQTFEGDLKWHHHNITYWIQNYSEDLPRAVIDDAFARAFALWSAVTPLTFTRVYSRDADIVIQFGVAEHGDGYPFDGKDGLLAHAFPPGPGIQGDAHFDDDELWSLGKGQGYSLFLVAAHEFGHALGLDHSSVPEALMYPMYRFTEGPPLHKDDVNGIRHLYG
Put plainly: ThermoFluor binding assay with proMMP9(67-444;ΔFnII). The conditions noted are these: pH 7.0. In short, it runs like this:
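Thermal shift binding with 3.5 μM proMMP9(67-444;ΔFnII) and 50 μM 1,8-ANS in 50 mM HEPES pH 7.0, 100 mM NaCl, 2.5 mM MgCl2, 300 μM CaCl2, 0.001% Tween-20, with serially diluted compound. Heated 40 to 90° C at 1° C/min; fluorescence-derived Tm fitted using DSC/ThermoFluor thermodynamic parameters.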

Test [3] has as its target T3, full-length proMMP9(1-707) (SEQ ID NO:1) (Homo sapiens, UniProt P14780, R574P).
T3 construct: made in house; host or cells: HEK293 (proMMP9, secreted); E. coli (MMP3)
Nature of the test: proMMP9/MMP3 P126 Activation Assay. It is filed as biochemical. As to conditions: 20 nM proMMP9, 20 nM MMP3, 80 min 37° C. Here is the method: The reaction volume was 50 μL. […] Reactivity of residual MMP3 towards P-126 substrate was minimal under these conditions.

The target in test [4] is proMMP13(1-268) (SEQ ID NO:7) (Homo sapiens, UniProt P45452). Put plainly: ThermoFluor binding assay with proMMP13(1-268). Also noted: 6xHis (C); made in house. As to conditions: pH 7.0. Here is the method:
The ThermoFluor® (TF) assay is a 384-well plate-based binding assay that measures thermal stability of proteins (Biomol Screen 2001, 6, 429-40; Biochemistry 2005, 44, 5258-66). The experiments were carried out using instruments available from Johnson & Johnson Pharmaceutical Research & Development, LLC. TF dye used in all experiments was […] (1,8-ANS) (Invitrogen: A-47).
Compounds were arranged in a pre-dispensed plate (Greiner Bio-one: 781280), wherein compounds were serially diluted in 100% DMSO across 11 columns within a series. Columns 12 and 24 were used as DMSO reference and contained no compound. For multiple compound concentration-response experiments, the compound aliquots ([…]) were robotically predispensed directly into black 384-well polypropylene PCR microplates (Abgene: TF-0384/k) using a Cartesian Hummingbird liquid handler (DigiLab, Holliston, Mass.). Following compound dispense, protein and dye solutions were added to achieve the final assay volume of 3 μL. The assay solutions were overlayed with 1 μL of silicone oil (Fluka, type DC 200: 85411) to prevent evaporation.
Assay plates were robotically loaded onto a thermostatically controlled PCR-type thermal block and then heated from 40 to 90° C. at a ramp-rate of 1° C./min for all experiments. Fluorescence was measured by continuous illumination with UV light (Hamamatsu LC6) supplied via fiber optics and filtered through a band-pass filter (380-400 nm; >6 OD cutoff). Fluorescence emission of the entire 384-well plate was detected by measuring light intensity using a CCD camera (Sensys, Roper Scientific) filtered to detect 500±25 nm, resulting in simultaneous and independent readings of all 384 wells. A single image with 20-sec exposure time was collected at each temperature, and the sum of the pixel intensity in a given area of the assay plate was recorded vs temperature and fit to standard equations to yield the Tm (J Biomol Screen 2001, 6, 429-40).
Thermodynamic parameters necessary for fitting compound binding for each proMMP were estimated by differential scanning calorimetry (DSC) and from ThermoFluor® data. The heat capacity of unfolding for each protein was estimated from the molecular weight and from ThermoFluor® dosing data.
The proMMP13(1-268) (SEQ ID NO:7) protein sample preparations included a desalting buffer exchange step via a PD-10 gravity column (GE Healthcare). The desalting buffer exchange was performed prior to diluting the protein to the final assay concentration of 3.5 μM. The concentration of proMMP13(1-268) (SEQ ID NO:7) was estimated spectrophotometrically based on a calculated extinction coefficient of ε280=37000 M^−1cm^−1, a calculated molecular weight of 30.8 kDa, and calculated pI of 5.33. ThermoFluor® reference conditions were defined as follows: 100 μg/mL proMMP13(1-268) (SEQ ID NO:7), 25 μM 1,8-ANS, pH 7.0 Buffer (50 mM HEPES pH 7.0, 100 mM NaCl, 0.001% Tween-20, 2.5 mM MgCl2, 300 μM CaCl2). The thermodynamic parameters for proMMP13(1-268) (SEQ ID NO:7) are as follows: Tm (° C.)=67 (+/−0.1), ΔUH(Tm) (cal mol^−1)=107000(+/−5000), ΔUS(Tm) (cal mol^−1 K^−1)=318, ΔUCp (cal mol^−1 K^−1)=2600.
On the technique in general: In DSF a fluorescence change marks the thermal transition of the protein.

T3 sequence (P14780 20-707 R574P): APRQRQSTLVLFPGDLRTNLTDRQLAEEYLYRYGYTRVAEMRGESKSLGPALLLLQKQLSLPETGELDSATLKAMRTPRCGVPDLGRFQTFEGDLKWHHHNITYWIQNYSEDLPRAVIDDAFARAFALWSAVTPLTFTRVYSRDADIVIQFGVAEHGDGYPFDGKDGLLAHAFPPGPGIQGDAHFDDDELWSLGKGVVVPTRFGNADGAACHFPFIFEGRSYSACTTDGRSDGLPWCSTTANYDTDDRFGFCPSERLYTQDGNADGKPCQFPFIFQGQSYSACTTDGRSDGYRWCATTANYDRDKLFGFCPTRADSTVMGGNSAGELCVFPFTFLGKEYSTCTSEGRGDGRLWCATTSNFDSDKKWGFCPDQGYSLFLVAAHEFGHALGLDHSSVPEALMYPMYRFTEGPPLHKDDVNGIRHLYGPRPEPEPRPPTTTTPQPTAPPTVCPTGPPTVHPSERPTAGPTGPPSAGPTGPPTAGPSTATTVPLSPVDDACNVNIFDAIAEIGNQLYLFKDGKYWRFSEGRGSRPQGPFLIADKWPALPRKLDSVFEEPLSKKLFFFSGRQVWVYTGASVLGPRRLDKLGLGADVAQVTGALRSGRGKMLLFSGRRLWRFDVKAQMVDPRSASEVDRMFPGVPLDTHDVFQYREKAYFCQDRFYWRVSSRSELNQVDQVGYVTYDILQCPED

One may read the Kd as the equilibrium constant for the complex coming apart. In general, IC50 refers to the concentration at which inhibition is half-maximal. A high value points to lower potency. Regarding `Cc1cc2cccc(Nc3nc(-c4sc(C)nc4C)cs3)c2o1` [Example 29, (2′,4′-Dimethyl-[4,5′]bithiazolyl-2-yl)-(2-methyl-benzofuran-7-yl)-amine], the Kd in test [1] is 61000 nM; in test [2], above 95000 nM; in test [4], above 95000 nM. It took 3800 nM to reach half-maximal inhibition in test [3] (IC50).
In the case of `COc1ccc(CC(N)=O)cc1Nc1nc(-c2sc(C)nc2C)cs1` [Example 30, 2-[3-(2′,4′-Dimethyl-[4,5′]bithiazolyl-2-ylamino)-4-methoxy-phenyl]-acetamide], the values for the equilibrium dissociation constant (Kd) in test [1], in test [2] and in test [4] were 18000 nM, 4900 nM and above 95000 nM, respectively. The compound also came in with an IC50 in test [3] of 4100 nM.
As to `COc1cc2c(cc1Nc1nc(-c3sc(C)nc3C)cs1)C(=O)NC2` [Example 31, 6-(2′,4′-Dimethyl-[4,5′]bithiazolyl-2-ylamino)-5-methoxy-2,3-dihydro-isoindol-1-one], the Kd in test [1] was 9000 nM; in test [2], 33000 nM; in test [4] it was 49000 nM. In addition, the IC50 in test [3] was around 7000 nM.
As to `Cc1nc(NC(=O)C2CCN(C)CC2)sc1-c1csc(Nc2cc(C(N)=O)ccc2OC(C)C)n1` [Example 32, 1-Methyl-piperidine-4-carboxylic acid [2-(5-carbamoyl-2-isopropoxy-phenylamino)-4′-methyl-[4,5′]bithiazolyl-2′-yl]-amide], the results for the dissociation constant Kd in test [1], in test [2] and in test [4] were 720 nM, 250 nM and 1900 nM, respectively. The compound also yielded an IC50 in test [3] of 150 nM.
As for `Cc1nc(C)c(-c2csc(Nc3cc(S(N)(=O)=O)cc4c3OCC4)n2)s1` [Example 33, 7-(2′,4′-Dimethyl-[4,5′]bithiazolyl-2-ylamino)-2,3-dihydro-benzofuran-5-sulfonic acid amide], the Kd in test [1] is 13000 nM; in test [2], above 95000 nM; in test [4], 2900 nM. The compound further showed an IC50 in test [3] of 7300 nM.
Take `COc1c(F)cc(C(N)=O)cc1Nc1nc(-c2sc(C)nc2C)cs1` [Example 34, 3-(2′,4′-Dimethyl-[4,5′]bithiazolyl-2-ylamino)-5-fluoro-4-methoxy-benzamide]: the Kd in test [1] was found to be 7800 nM; in test [2] it was 12000 nM; in test [4], 28000 nM. In test [3], the IC50 worked out at 9000 nM.
`COc1cc(C)c(C(N)=O)cc1Nc1nc(-c2sc(C)nc2C)cs1` [Example 36, 5-(2′,4′-Dimethyl-[4,5′]bithiazolyl-2-ylamino)-4-methoxy-2-methyl-benzamide.TFA]: the values for the Kd in test [1], in test [2] and in test [4] were 850 nM, 27000 nM and 11000 nM, respectively. The compound further showed an IC50 in test [3] of 670 nM.
In the case of `COc1ccc(C#N)cc1Nc1nc(-c2sc(C)nc2C)cs1` [Example 39, 3-(2′,4′-Dimethyl-[4,5′]bithiazolyl-2-ylamino)-4-methoxy-benzonitrile.TFA], the Kd is 1100 nM in test [1], 1400 nM in test [2] and above 95000 nM in test [4]. In test [3], this compound came in with an IC50 of 760 nM.
As for `COc1ccc(C#N)cc1Nc1nc(-c2sc(N)nc2C)cs1` [Example 40, 3-(2′-Amino-4′-methyl-[4,5′]bithiazolyl-2-ylamino)-4-methoxy-benzonitrile.HBr], the Kd stood at 990 nM in test [1], 310 nM in test [2] and 1500 nM in test [4]. This compound had a 50% inhibitory concentration (IC50) in test [3] of 900 nM.
Take `CC(=O)Nc1nc(C)c(-c2csc(Nc3cc(S(C)(=O)=O)ccc3OC(C)C)n2)s1` [Example 43, N-[2-(2-Isopropoxy-5-methanesulfonyl-phenylamino)-4′-methyl-[4,5]bithiazolyl-2′-yl]-acetamide.TFA]: the Kd in test [1] was 590 nM; in test [2], 580 nM; in test [4] it was 840 nM. Also, in test [3], the midpoint of inhibition, the IC50, lay at 760 nM.
As for `Cc1nc(N)sc1-c1csc(Nc2cc(S(C)(=O)=O)ccc2OC(C)C)n1` [Example 44, N^2-(2-Isopropoxy-5-methanesulfonyl-phenyl)-4′-methyl-[4,5′]bithiazolyl-2,2′-diamine.TFA], the dissociation constant Kd turned out to be 72 nM in test [1], 240 nM in test [2] and 70 nM in test [4]. Also, in test [3], the IC50 was determined as 410 nM.
Regarding `Cc1nc(C)c(-c2csc(Nc3cc(S(C)(=O)=O)ccc3OC(C)C)n2)s1` [Example 45, (2′,4′-Dimethyl-[4,5′]bithiazolyl-2-yl)-(2-isopropoxy-5-methanesulfonyl-phenyl)-amine.TFA], the Kd in test [1] is 240 nM; in test [2] it was 980 nM; in test [4], 200 nM. This compound gave an IC50 in test [3] of 830 nM.
With `CCOc1ccc(C(=O)O)cc1Nc1nc(-c2sc(N)nc2C)cs1` [Example 46, 3-(2′-Amino-4′-methyl-[4,5′]bithiazolyl-2-ylamino)-4-ethoxy-benzoic acid.HBr], the Kd worked out at 1400 nM in test [1], 1200 nM in test [2] and 5500 nM in test [4]. The compound further displayed an IC50 in test [3] of 1100 nM.
For `CCOc1ccc(C(=O)O)cc1Nc1nc(-c2sc(C)nc2C)cs1` [Example 47, 3-(2′,4′-Dimethyl-[4,5′]bithiazolyl-2-ylamino)-4-ethoxy-benzoic acid.HBr], the Kd in test [1] amounted to 1800 nM; in test [2], 680 nM; in test [4] it was 2400 nM. 310 nM corresponded to half-maximal inhibition in test [3] (IC50).
For `CCOc1ccc(C(=O)O)cc1Nc1nc(-c2sc(NC(C)=O)nc2C)cs1` [Example 48, 3-(2′-Acetylamino-4′-methyl-[4,5′]bithiazolyl-2-ylamino)-4-ethoxy-benzoic acid.HBr], in that order: 23000 nM, 3700 nM, 63000 nM and 1400 nM.
For `CCS(=O)(=O)c1ccc(OC)c(Nc2nc(-c3sc(NC(C)=O)nc3C)cs2)c1` [Example 49, N-[2-(5-Ethanesulfonyl-2-methoxy-phenylamino)-4′-methyl-[4,5]bithiazolyl-2′-yl]-acetamide.TFA], in that order: 4100 nM, 2500 nM, 6100 nM and 3000 nM.
